One series deals with influenza A virus (H1N1). It counts as cell-based, influenza A virus A/Hong Kong/415742Md/2009 (H1N1).
Series [1] has as its system A/Hong Kong/415742Md/2009 (H1N1). It counts as in vivo.
Another series can be described thus: in vitro. The following applies: dog, MDCK cells.

The structures appear in SMILES notation. In brackets after ≈: the same amount, converted by molar mass. Where two headings read alike, the source gives them in different places. Peptide text beside a SMILES is read from it.

Turning to `CC[C@H](C)[C@H](NC(=O)[C@H](C)NC(=O)CNC(=O)[C@@H](N)CC(N)=O)C(=O)N[C@@H](CS)C(=O)N[C@@H](Cc1c[nH]c2ccccc12)C(=O)NCC(=O)N1CCC[C@H]1C(=O)N[C@@H](CS)C(=O)N1CCC[C@H]1C(=O)N[C@H](C(=O)N[C@@H](C)C(=O)N[C@@H](Cc1ccccc1)C(=O)N[C@@H](CCCNC(=N)N)C(=O)N[C@@H](CCC(N)=O)C(=O)N[C@H](C(=O)NCC(=O)N[C@@H](CC(N)=O)C(=O)N[C@@H](CS)C(=O)NCC(=O)N[C@@H](Cc1c[nH]cn1)C(=O)N[C@@H](Cc1ccccc1)C(=O)N[C@@H](CCCCN)C(=O)N[C@H](C(=O)N[C@@H](CCCNC(=N)N)C(=O)N[C@@H](CS)C(=O)N[C@@H](CS)C(=O)N[C@@H](CCCCN)C(=O)N[C@H](C(=O)N[C@@H](CCCNC(=N)N)C(=O)O)[C@@H](C)CC)C(C)C)[C@@H](C)CC)[C@@H](C)O` [Peptide P9] (H-NGAICWGPCPTAFRQIGNCGHFKVRCCKIR-OH), in the series with influenza A virus (H1N1), the “antiviral effect (infection ratio by plaque assay)” value was “highest antiviral effect” and the “antiviral effectiveness in low-salt PB compared with high-salt MEM” value was “more effective in low-salt phosphate buffer (PB) than in high-salt minimum essential medium (MEM)”. In series [1] (pretreated and i.n. or i.p. treated mice, day 5 after challenge, versus untreated), the “viral loads in lung tissues (RNA copies by RT-PCR, titers by plaque assay)” value is on record as “significantly lower than those of the untreated mice”. Further, the “alveolar damage and interstitial inflammatory infiltration in lung (H&E)” value in series [1] (pretreated or treated mice versus rmBD4 and untreated mice) is listed as “much less severe”. In series [1] (prophylactic, i.n. 50 μg/mouse before challenge with 5 LD50 H1N1, 9 mice/group, 21 days), this molecule had a survival rate of 100%. Further, in series [1] (therapeutic, i.n. 3 doses 50 μg/dose/day starting 4 hours after lethal challenge), the survival rate worked out at 67%. The survival rate in series [1] (therapeutic, i.p. 6 doses 200 μg/dose/day starting 4 hours post-challenge) was 22%. For the same molecule, the survival rate in series [1] (therapeutic, i.p. 6 doses 400 μg/dose/day starting 4 hours post-challenge) is reported as 56%. Further, the “TC50 (50% toxic concentration)” value in the series with MDCK cells stood at 860 µg/mL (≈ 258 µM). In addition, in the series with H1N1 virus, the “binding of P9 to cells” value is listed as “no P9 (SEQ ID NO: 10) was detected on the cell membrane or inside the cells”, the “binding of P9 to virus particles” value is “bound to the green-labeled virus particles”, the “virus binding to the cell membrane” value was “could not block the virus binding to the cell membrane” and the “virus entry into cells by endocytosis” value was “did not affect the virus entry into cells by endocytosis”. The “endosomal acidification (red fluorescence of pHrodo Red dextran)” value in the series on endosomal acidification is listed as “no red fluorescence in color image was observed”. Further, in the series “in vitro”, the CC50 (usually the concentration that lowers cell viability or growth by half) at 24 h stood at 860 µg/mL (≈ 258 µM); the viability (commonly a read-out of living cells in per cent, often relative to untreated cells) at 24 h, 7.8 µg/mL is 102%; the viability at 24 h, 15.6 µg/mL came out at 95.9%; the viability at 24 h, 31.25 µg/mL was 108%. In “in vitro”, the viability at 24 h, 62.5 µg/mL is 96%; the viability at 24 h, 125 µg/mL was determined as 94.7%; the viability at 24 h, 250 µg/mL was determined as 95.3%; the viability at 24 h, 500 µg/mL was determined as 83.4%. Besides, in the series “in vitro”, the viability at 24 h, 750 µg/mL is 59.8% and the viability at 24 h, 1000 µg/mL stood at 38.7%.
In the case of `CC[C@H](C)[C@H](N)C(=O)N[C@H](C(=O)N[C@@H](CC(N)=O)C(=O)N[C@@H](CC(N)=O)C(=O)N1CCC[C@H]1C(=O)N[C@H](C(=O)N[C@H](C(=O)N[C@@H](CS)C(=O)N[C@@H](CCSC)C(=O)N[C@H](C(=O)N[C@@H](CC(N)=O)C(=O)NCC(=O)N[C@@H](C)C(=O)N[C@H](C(=O)N[C@@H](CS)C(=O)N[C@@H](Cc1c[nH]c2ccccc12)C(=O)NCC(=O)N1CCC[C@H]1C(=O)N[C@@H](CS)C(=O)N1CCC[C@H]1C(=O)N[C@H](C(=O)N[C@@H](C)C(=O)N[C@@H](Cc1ccccc1)C(=O)N[C@@H](CCCNC(=N)N)C(=O)N[C@@H](CCC(N)=O)C(=O)N[C@H](C(=O)NCC(=O)N[C@@H](CC(N)=O)C(=O)N[C@@H](CS)C(=O)NCC(=O)N[C@@H](Cc1c[nH]cn1)C(=O)N[C@@H](Cc1ccccc1)C(=O)N[C@@H](CCCCN)C(=O)N[C@H](C(=O)N[C@@H](CCCNC(=N)N)C(=O)N[C@@H](CS)C(=O)N[C@@H](CS)C(=O)N[C@@H](CCCCN)C(=O)N[C@H](C(=O)N[C@@H](CCCNC(=N)N)C(=O)O)[C@@H](C)CC)C(C)C)[C@@H](C)CC)[C@@H](C)O)[C@@H](C)CC)[C@@H](C)O)[C@@H](C)O)[C@@H](C)CC)[C@@H](C)CC` [smBD4, reference compound], the “antiviral effectiveness in low-salt PB compared with high-salt MEM” value in the series with influenza A virus (H1N1) was “more effective in low-salt phosphate buffer (PB) than in high-salt minimum essential medium (MEM)”. In the series on MDCK cells, the “TC50 (50% toxic concentration)” value stood at 94 µg/mL (≈ 21.2 µM). In addition, in “in vitro”, the CC50 at 24 h was determined as 94 µg/mL (≈ 21.2 µM); the viability at 24 h, 7.8 µg/mL was determined as 93.7%; the viability at 24 h, 15.6 µg/mL amounted to 85.3%; the viability at 24 h, 31.25 µg/mL was 71.9%. For the same molecule, in the series “in vitro”, the viability at 24 h, 62.5 µg/mL was determined as 60%; the viability at 24 h, 125 µg/mL is 45.5%; the viability at 24 h, 250 µg/mL came to 36.5%.

The values above are taken from US9822155B2 (priority 2013, dated 2017).
